Source: publication PMC11617632, “Long-range conformational changes in the nucleotide-bound states of the DEAD-box helicase Vasa” (Biophysical Journal, 2024)
Values belong to the compound of their own block, whether it stands above or below them.

Columns and labels:
Type in all cases: binding
Vasa [1] = target: T1, Vasa (Bombyx mori, UniProt O01378); experiment: NMR titration, 1H-13C methyl-HMQC, slow exchange
T1 construct: gene BmVLG
T1 sequence (O01378 135-564): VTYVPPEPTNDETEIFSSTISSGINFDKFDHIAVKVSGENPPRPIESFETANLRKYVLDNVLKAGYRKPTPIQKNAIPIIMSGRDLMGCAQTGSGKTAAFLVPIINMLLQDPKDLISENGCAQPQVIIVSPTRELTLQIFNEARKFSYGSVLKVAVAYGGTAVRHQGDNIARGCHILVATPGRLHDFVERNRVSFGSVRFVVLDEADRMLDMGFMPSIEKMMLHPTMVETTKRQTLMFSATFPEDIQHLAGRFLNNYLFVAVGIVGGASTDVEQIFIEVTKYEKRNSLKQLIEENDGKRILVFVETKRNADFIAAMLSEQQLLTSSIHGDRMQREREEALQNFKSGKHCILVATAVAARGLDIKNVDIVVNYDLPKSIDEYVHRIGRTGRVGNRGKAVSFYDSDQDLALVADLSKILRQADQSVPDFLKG

Vasa [2] = target: T2, Vasa (Bombyx mori, UniProt O01378); experiment: NMR CSP titration, fast exchange
T2 construct: gene BmVLG
T2 sequence (O01378 135-400): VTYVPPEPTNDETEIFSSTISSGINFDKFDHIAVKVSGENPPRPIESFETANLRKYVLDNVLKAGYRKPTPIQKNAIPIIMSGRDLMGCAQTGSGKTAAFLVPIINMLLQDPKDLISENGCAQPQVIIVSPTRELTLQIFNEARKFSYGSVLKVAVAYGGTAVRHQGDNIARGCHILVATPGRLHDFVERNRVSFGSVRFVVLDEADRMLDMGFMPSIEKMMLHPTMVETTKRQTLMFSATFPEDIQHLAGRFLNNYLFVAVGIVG

Vasa [3] = target: T1, Vasa; experiment: NMR methyl CSP titration, fast exchange (not saturated; KD inaccurate)

Kd (Vasa [1]): 53 ± 15 µM
SMILES: Nc1ncnc2c1ncn2[C@@H]1O[C@H](COP(=O)(O)OP(=O)(O)O)[C@@H](O)[C@H]1O [ADP]

SMILES: Nc1ncnc2c1ncn2[C@@H]1O[C@H](COP(=O)(O)OP(=O)(O)OP(=O)(O)O)[C@@H](O)[C@H]1O [ATP]
Kd (Vasa [2]): 1600 ± 600 µM

Kd (Vasa [3]): ~18800 µM
SMILES: Nc1ncnc2c1ncn2[C@@H]1O[C@H](CO[P@](=O)(O)O[P@](=O)(O)O[P@@](=O)(O)S)[C@@H](O)[C@H]1O [ATPγS, adenosine 5′-γ-thiotriphosphate]
